Data reported in the NIST ThermoML archive (doi:10.1021/je300280s).
“And” between values parts separate entries of the source, which are not always exact repeats. Equal entries are not always repeated.

How the values were obtained:
[1] = excess molar enthalpy (molar enthalpy of mixing); xn = mol fraction of the nth substance listed; conditions: 101.3 kPa, Liquid, Flow calorimetry
[2] = xn = mol fraction of the nth substance listed; conditions: 101.3 kPa, Liquid, Vibrating tube method

CCCC(=O)OC [methyl butanoate] + O
Conditions	excess molar enthalpy, [1]	mass density, [2]
288.15 K, x1 = 0.000628	-0.00163 kcal/mol and -0.00164 kcal/mol	999.058 kg/m3
288.15 K, x1 = 0.000941	-0.00247 kcal/mol	999.037 kg/m3
288.15 K, x1 = 0.000943	-0.00244 kcal/mol	999.038 kg/m3
288.15 K, x1 = 0.001255	-0.00319 kcal/mol	999.019 kg/m3
288.15 K, x1 = 0.001257	-0.00321 kcal/mol	999.019 kg/m3
288.15 K, x1 = 0.001569	-0.00403 kcal/mol	998.999 kg/m3
288.15 K, x1 = 0.00157	-0.00397 kcal/mol	999.001 kg/m3
288.15 K, x1 = 0.001882	-0.00473 kcal/mol	998.985 kg/m3
288.15 K, x1 = 0.001884	-0.00482 kcal/mol	998.981 kg/m3
298.15 K, x1 = 0.000628	-0.00122 kcal/mol and -0.00123 kcal/mol	996.968 kg/m3 and 996.965 kg/m3
298.15 K, x1 = 0.000942	-0.00184 kcal/mol and -0.00183 kcal/mol	996.917 kg/m3 and 996.921 kg/m3
298.15 K, x1 = 0.001256	-0.0024 kcal/mol and -0.00241 kcal/mol	996.885 kg/m3 and 996.884 kg/m3
298.15 K, x1 = 0.001569	-0.00296 kcal/mol	996.85 kg/m3
298.15 K, x1 = 0.00157	-0.003 kcal/mol	996.838 kg/m3
298.15 K, x1 = 0.001882	-0.0036 kcal/mol	996.8 kg/m3
298.15 K, x1 = 0.001883	-0.00351 kcal/mol	996.81 kg/m3
298.15 K, x1 = 0.002195	-0.00402 kcal/mol	996.774 kg/m3
298.15 K, x1 = 0.002197	-0.00404 kcal/mol	996.773 kg/m3
308.15 K, x1 = 0.000626	-0.000837 kcal/mol	993.913 kg/m3
308.15 K, x1 = 0.000627	-0.000839 kcal/mol	993.914 kg/m3
308.15 K, x1 = 0.000939	-0.00124 kcal/mol	993.855 kg/m3
308.15 K, x1 = 0.000941	-0.00124 kcal/mol	993.855 kg/m3
308.15 K, x1 = 0.001253	-0.00165 kcal/mol	993.793 kg/m3
308.15 K, x1 = 0.001254	-0.00161 kcal/mol	993.798 kg/m3
308.15 K, x1 = 0.001565	-0.00199 kcal/mol	993.741 kg/m3
308.15 K, x1 = 0.001567	-0.00199 kcal/mol	993.742 kg/m3
308.15 K, x1 = 0.001878	-0.00241 kcal/mol	993.673 kg/m3
308.15 K, x1 = 0.00188	-0.00237 kcal/mol	993.682 kg/m3
308.15 K, x1 = 0.002191	-0.00271 kcal/mol	993.626 kg/m3
308.15 K, x1 = 0.002194	-0.00272 kcal/mol	993.63 kg/m3
318.15 K, x1 = 0.000941	-0.00066 kcal/mol	989.988 kg/m3
318.15 K, x1 = 0.000942	-0.000669 kcal/mol	989.983 kg/m3
318.15 K, x1 = 0.001254	-0.000865 kcal/mol	989.911 kg/m3
318.15 K, x1 = 0.001255	-0.000872 kcal/mol	989.908 kg/m3
318.15 K, x1 = 0.001567	-0.00106 kcal/mol	989.837 kg/m3
318.15 K, x1 = 0.001569	-0.00106 kcal/mol	989.832 kg/m3
318.15 K, x1 = 0.001879	-0.00126 kcal/mol	989.762 kg/m3
318.15 K, x1 = 0.001882	-0.00124 kcal/mol	989.758 kg/m3
318.15 K, x1 = 0.002192	-0.00141 kcal/mol	989.694 kg/m3
318.15 K, x1 = 0.002195	-0.00143 kcal/mol	989.679 kg/m3
